Reference: publication PMC7572570 (Clinical cancer research : an official journal of the …, 2020)
“And” between values parts separate entries of the source, which are not always exact repeats. Equal entries are not always repeated. Where two headings read alike, the source gives them in different places.

Assays:
[1] = in vivo
[2] = tested on: select advanced solid tumors or hematologic malignancies; test: Treatment duration and antitumor activity; type: in vivo, human; settings: all cohorts, heavily pre-treated population with liver dysfunction
[3] = population PK analysis in patients with CTCL and PTCL; cited from earlier work
clinical = settings: human, plasma
[4] = Safety, dose-limiting toxicity and treatment-emergent adverse events
[5] = mild hepatic impairment 14 mg/m^2 vs normal 14 mg/m^2
[6] = moderate hepatic impairment 7 mg/m^2 vs normal 14 mg/m^2
[7] = patients who did not experience a DLT
[8] = severe hepatic impairment 5 mg/m^2 vs normal 14 mg/m^2
[9] = the two patients who had DLTs (individual values)
[10] = Severe (D) n=6, 5 mg/m^2, treatment-related TEAE, Cycle 1
[11] = Total n=31, all cohorts, treatment-related TEAE, Cycle 1

In the case of `C/C=C1\NC(=O)[C@H]2CSSCC/C=C/[C@H](CC(=O)N[C@H](C(C)C)C(=O)N2)OC(=O)[C@H](C(C)C)NC1=O` [romidepsin], the “Alkaline phosphatase increased, Any Grade” value ([1]; human) is reported as 1 (3%) n (%), the “Anorexia, Any Grade” value ([1]; human) is reported as 11 (35%) n (%) and the “ECG changes (QT, ST-T changes), number of patients” value ([1]; human) is reported as 4. For the same compound, the “ECG changes (QT, ST-T changes), patients” value ([1]; human) was 23%, the “Aspartate aminotransferase increased, Any Grade” value ([1]; human, 28 day) was 1 (3%) n (%) and the “Asthenia, Any Grade” value ([1]; human, 28 day) was 3 (10%) n (%). The “Bradycardia, Any Grade” value ([1]; human, 28 day) was 1 (3%) n (%), the “Creatinine increased, Any Grade” value ([1]; human, 28 day) was 2 (6%) n (%) and the “aPTT increased, Any Grade” value ([1]; human, 28 day) was 1 (3%) n (%). The “decreased white blood cell counts, all grade treatment-emergent adverse event” value ([1]; human, 28 day) was 55%, the “subjects who discontinued before the end of Cycle 1 due to an adverse event” value ([1]; human, 28 day) was 3 and the “vomiting, all grade treatment-emergent adverse event” value ([1]; human, 28 day) was 42%. For the same compound, the “Abdominal distension, Any Grade” value ([1]; human, 28 days) was 1 (3%) n (%), the “Abdominal pain, Any Grade” value ([1]; human, 28 days) was 1 (3%) n (%) and the “Anemia, Any Grade” value ([1]; human, 28 days) was 9 (29%) n (%). The “Anemia, Grade 3 or 4” value ([1]; human, 28 days) was 1 (3%) n (%), the “Diarrhea, Any Grade” value ([1]; human, 28 days) was 2 (6%) n (%) and the “Dizziness, Any Grade” value ([1]; human, 28 days) was 2 (6%) n (%). For the same compound, the “Dry mouth, Any Grade” value ([1]; human, 28 days) was 1 (3%) n (%), the “Dry skin, Any Grade” value ([1]; human, 28 days) was 1 (3%) n (%) and the “Dysgeusia, Any Grade” value ([1]; human, 28 days) was 3 (10%) n (%). The “Dyspepsia, Any Grade” value ([1]; human, 28 days) was 1 (3%) n (%), the “Fatigue, Any Grade” value ([1]; human, 28 days) was 13 (42%) n (%) and the “Fatigue, Grade 3 or 4” value ([1]; human, 28 days) was 2 (6%) n (%). For the same compound, the “Gastric haemorrhage, Any Grade” value ([1]; human, 28 days) was 1 (3%) n (%), the “Gastric haemorrhage, Grade 3 or 4” value ([1]; human, 28 days) was 1 (3%) n (%) and the “Generalized pain, Any Grade” value ([1]; human, 28 days) was 1 (3%) n (%). For the same compound, the “Glossodynia, Any Grade” value ([1]; human, 28 days) was 1 (3%) n (%), the “Headache, Any Grade” value ([1]; human, 28 days) was 4 (13%) n (%) and the “Hypercalcemia, Any Grade” value ([1]; human, 28 days) was 1 (3%) n (%). For the same compound, the “Hyperuricemia, Any Grade” value ([1]; human, 28 days) was 1 (3%) n (%), the “Hypoalbuminemia, Any Grade” value ([1]; human, 28 days) was 3 (10%) n (%) and the “Hypocalcemia, Any Grade” value ([1]; human, 28 days) was 1 (3%) n (%). For the same compound, the “Hypoglycemia, Any Grade” value ([1]; human, 28 days) was 1 (3%) n (%), the “Hypokalemia, Any Grade” value ([1]; human, 28 days) was 1 (3%) n (%) and the “Hypomagnesmia, Any Grade” value ([1]; human, 28 days) was 1 (3%) n (%). The “Hyponatremia, Any Grade” value ([1]; human, 28 days) was 4 (13%) n (%), the “Hypotension, Any Grade” value ([1]; human, 28 days) was 1 (3%) n (%) and the “Hypotension, Grade 3 or 4” value ([1]; human, 28 days) was 1 (3%) n (%). The “Muscle cramping, Any Grade” value ([1]; human, 28 days) was 1 (3%) n (%), the “Nausea, Any Grade” value ([1]; human, 28 days) was 21 (68%) n (%) and the “Nausea, Grade 3 or 4” value ([1]; human, 28 days) was 2 (6%) n (%). The “Peripheral neuropathy, Any Grade” value ([1]; human, 28 days) was 2 (6%) n (%), the “Photophobia, Any Grade” value ([1]; human, 28 days) was 1 (3%) n (%) and the “QTc prolongation, Any Grade” value ([1]; human, 28 days) was 7 (23%) n (%). For the same compound, the “Tachycardia, Any Grade” value ([1]; human, 28 days) was 2 (6%) n (%), the “Thrombocytopenia, Any Grade” value ([1]; human, 28 days) was 16 (52%) n (%) and the “Thrombocytopenia, Grade 3 or 4” value ([1]; human, 28 days) was 1 (3%) n (%). For the same compound, the “Vomiting, Any Grade” value ([1]; human, 28 days) was 13 (42%) n (%), the “WBC decrease, Any Grade” value ([1]; human, 28 days) was 17 (55%) n (%) and the “WBC decrease, Grade 3 or 4” value ([1]; human, 28 days) was 7 (23%) n (%). For the same compound, the “Weight loss, Any Grade” value ([1]; human, 28 days) was 1 (3%) n (%), the “Torsades de Pointes or other treatment-emergent arrhythmia” value [1] was “no cases of Torsades de Pointes or other treatment-emergent arrhythmia” and the dose-limiting toxicity [1] was “without DLT”. For the same compound, the “dose-limiting toxicity, patients” value [1] was “two patients”, the “stable disease as best clinical response” value [2] was 12 patients and the “effect of mild hepatic impairment on exposure” value [3] was “no effect on romidepsin exposure”. For the same compound, the “plasma concentrations at last time point” value (48 hours after initiation of the infusion) was “still quantifiable at the 48-hour time point”, the “T1/2 (terminal half-life)” value (Mild Cohort B, 14 mg/m^2 IV, geometric mean ± SD) was 13.55±1.41 (7) hr and the “change of clearance with hepatic function” value (compared to the normal hepatic function cohort) was “clearance decreased with worsening hepatic function”. The “geometric mean AUCINF as % of normal hepatic function cohort” value (“geometric mean AUCINF as %” for short) [5] was roughly 144%, the “geometric mean Cmax as % of normal hepatic function cohort” value (shortened to “geometric mean Cmax as %”) [5] was “approximately 115%” and the “geometric mean AUCINF as %” value [6] was 114%. The “geometric mean Cmax as %” value [6] was 96%, the “dose-normalized AUCINF (AUCINF/D), range” value [7] was 29.9 to 507.4 ng·h/mL/mg and the “dose-normalized Cmax (Cmax/D), range” value [7] was 7.3 to 84.6 ng/mL/mg. The “time at which plasma concentrations reached a plateau” value (post infusion initiation (first sample collected), 4-hour IV infusion) was “approximately 1 hour”, the “geometric mean AUCINF as %” value [8] was 116% and the “geometric mean Cmax as %” value [8] was “approximately 95%”. The clearance [9] was 6.8 L/h, the “dose-normalized AUCINF (AUCINF/D)” value [9] was 192.4 ng·h/mL/mg and 146.6 ng·h/mL/mg and the “dose-normalized Cmax (Cmax/D)” value [9] was 32.1 ng/mL/mg and 40.5 ng/mL/mg. For the same compound, the clearance (clinical; intravenous, clearance, range, patients who did not experience a DLT) was 33.3 to 557 mL/min, the half-life (clinical; iv, 5 mg/m2) was 14.5 ± 4.25 h and the clearance (clinical; iv, 5 mg/m2, Cl (systemic clearance), Severe Cohort D, 5 mg/m^2 IV, geometric mean ± SD) was 80 mL/min. For the same compound, the Vd (clinical; iv, 5 mg/m2, V (volume of distribution), Severe Cohort D, 5 mg/m^2 IV, geometric mean ± SD) was 15.4 ± 5.1 L, the half-life (clinical; iv, 7 mg/m2) was 14.1 ± 3.88 h and the clearance (clinical; iv, 7 mg/m2, Cl (systemic clearance), Moderate Cohort C, 7 mg/m^2 IV, geometric mean ± SD) was 115 mL/min. It also gave a Vd (clinical; iv, 7 mg/m2, V (volume of distribution), Moderate Cohort C, 7 mg/m^2 IV, geometric mean ± SD) of 19 ± 6.4 L, a half-life (clinical; iv, 14 mg/m2) of 11.1 ± 2.1 h and a clearance (clinical; iv, 14 mg/m2, Cl (systemic clearance), Mild Cohort B, 14 mg/m^2 IV, geometric mean ± SD) of 160 mL/min. The clearance (clinical; iv, 14 mg/m2, Cl (systemic clearance), Normal Cohort A, 14 mg/m^2 IV, geometric mean ± SD) was 270 mL/min, the Vd (clinical; iv, 14 mg/m2, V (volume of distribution), Mild Cohort B, 14 mg/m^2 IV, geometric mean ± SD) was 17.1 ± 2.5 L and the Vd (clinical; iv, 14 mg/m2, V (volume of distribution), Normal Cohort A, 14 mg/m^2 IV, geometric mean ± SD) was 20.7 ± 12.5 L. The “Flu-like symptoms (malaise), Any Grade” value [4, 10] was 1 (17%) n (%), the “Infections, Any Grade” value [4, 10] was 1 (17%) n (%) and the “Flu-like symptoms (malaise), Any Grade” value [4, 11] was 3 (10%) n (%). For the same compound, the “Infections, Any Grade” value [4, 11] was 4 (13%) n (%), the “Infections, Grade 3 or 4” value [4, 11] was 1 (3%) n (%) and the “subjects who discontinued before the end of Cycle 1 due to death” value ([4]; all cohorts, n) was 5.
